Literature values as cited in US20230413809A1, “DISINFECTANT COMPOSITION FOR SURFACES AND THE PREPARATION THEREOF” (Onyx Lotus, LLC, priority 2020, published 2023).

Settings: general statement on surfactant detergency, no test described

| SMILES | Critical micellar concentration (CMC) |
| --- | --- |
| CCCCCCCCCCCCCCCC[N+](C)(C)C.[Br-] [CTAB, cetyltrimethylammonium bromide] | 0.92 mM |
| O=C([O-])CC(C(=O)[O-])S(=O)(=O)O.[Na+].[Na+] (centres unmarked) [sodium sulfosuccinate] | 0.6 mM |
